Converted amounts (≈) assume the structure as drawn.

For this series the following is noted: buffer; pH 7.4; 200.0 µM.
`Cc1ccc(C(=O)N2CCn3c(C)ccc3C2C)cc1` (stereo unspecified) gave a kinetic solubility of 23.1 µg/mL (≈ 86.1 µM).

In turn, `C=CCn1c(O)c(C(C)=NC(C)c2ccccc2)c(=O)[nH]c1=O` (stereo unspecified) displayed a solubility (kinetic) greater than 47 µg/mL.

Regarding `CNc1snc(C)c1C(=O)OC(C)C(=O)Nc1cccc(C)c1` (stereo unspecified), the solubility (kinetic) was found to be 4.8 µg/mL (≈ 14.4 µM).

On to `C/C(=C\c1ccccc1)C(=O)Nc1ccc(Cl)cn1`, for which the kinetic solubility was found to be 7.2 µg/mL (≈ 26.4 µM).

`c1ccc2c(CN3CCCCC3)c[nH]c2c1` displayed a solubility (kinetic) greater than 32.1 µg/mL.

Take `COc1ccc2oc(=O)c(C(=O)NC3CCCCCC3)cc2c1`: the solubility (kinetic) was determined as 2.6 µg/mL (≈ 8.24 µM).

With `CSc1c(C#N)c(N)nc2sc(C(=O)c3ccccc3)c(N)c12`, the solubility (kinetic) amounted to 3.1 µg/mL (≈ 9.11 µM).

On to `Cc1ccc(NC(=O)Cn2c(=O)oc3ccccc32)cc1Cl`, for which the kinetic solubility is 0.9 µg/mL (≈ 2.84 µM).

As for `O=C1CN(C(=O)NCC(=O)N2CCCC2)c2ccccc2N1`, the kinetic solubility is greater than 45.3 µg/mL.

Regarding `Cn1cccc1/C=C(\C#N)C(N)=S`, the solubility (kinetic) worked out at 28.1 µg/mL (≈ 147 µM).

In turn, `Oc1cccc(/C=C/c2ccc3cccc(O)c3n2)c1` yielded a kinetic solubility of 2.3 µg/mL (≈ 8.74 µM).

Regarding `CC(=O)Nc1ccc2c(c1)ncn2-c1ccccc1`, the kinetic solubility is greater than 37.7 µg/mL.

`CC(=O)c1ccc(OCC(C)Oc2ccc(C#N)cc2)cc1` (stereo unspecified): the kinetic solubility was 23.3 µg/mL (≈ 78.9 µM).

For the compound `O=C(COC(=O)/C=C/c1cccc(F)c1)NC1CC1`, the kinetic solubility is greater than 39.5 µg/mL.

On to `COc1ccc(-c2cc(C(=O)NC3CCCC3)c3ccccc3n2)cc1OC`, for which the kinetic solubility is 1.6 µg/mL (≈ 4.25 µM).

`OCCC1CCCCN1CC(O)COCc1ccc(Cl)cc1` (stereo unspecified) registered a kinetic solubility of 45.1 µg/mL (≈ 138 µM).

On to `COc1ccccc1NC(=O)Cn1nc(C)n2cccc2c1=O`, for which the solubility (kinetic) is greater than 46.8 µg/mL.

For `CN1CCN(C(=O)/C=C/c2ccccc2)CC1`, the kinetic solubility was greater than 34.5 µg/mL.

`CCOc1ncccc1C(=O)Nc1nnc(C2CC2)s1` registered a kinetic solubility greater than 43.6 µg/mL.

Compound `Cc1ccc(NC(=O)CCNC(=O)c2ccccc2)cc1F` gave a kinetic solubility of 2.9 µg/mL (≈ 9.66 µM).

Compound `Cc1nc2ccccc2n1Cc1ccccc1Br` gave a kinetic solubility of 26 µg/mL (≈ 86.3 µM).

Regarding `Cl.c1ccc2c(N3CCOCC3)c3c(nc2c1)CCC3`, the kinetic solubility is greater than 43.6 µg/mL.

Regarding `CCC(=O)Nc1cccc(C(=O)OC)c1`, the solubility (kinetic) worked out at 29.4 µg/mL (≈ 142 µM).

Consider `COc1ccc(CNC(=O)COC(=O)c2ccc(F)c(S(=O)(=O)N3CCOCC3)c2)cc1`, for which the kinetic solubility was 68 µg/mL (≈ 146 µM).

For `Cc1ccc(NC(=O)c2ccccc2F)c(NC(=O)c2ccccc2F)c1`, the kinetic solubility was 6.4 µg/mL (≈ 17.5 µM).

`FC(F)(F)c1cccc(-c2nc(COc3ccc(Cl)cc3Cl)no2)c1`: the kinetic solubility is less than 0.4 µg/mL.

`COc1cc2ccccc2cc1C(=O)Nc1ccc(C)cc1` came in with a solubility (kinetic) of 2.3 µg/mL (≈ 7.89 µM).

Regarding `Cc1cc(C(=O)N2CCN(C(=O)c3ccco3)CC2)ccc1[N+](=O)[O-]`, the kinetic solubility was found to be 47.5 µg/mL (≈ 138 µM).

In the case of `CC#C[C@]1(O)CC[C@H]2[C@@H]3CCC4=CC(=O)CCC4=C3[C@@H](c3ccc(N(C)C)cc3)C[C@@]21C`, the solubility (kinetic) turned out to be 7 µg/mL (≈ 16.3 µM).

For the compound `CC(C)OCCCNC1=C(Cl)C(=O)c2ccccc2C1=O`, the solubility (kinetic) was 35.5 µg/mL (≈ 115 µM).

Compound `COCCSc1nc(N)c2c3c(sc2n1)CN(C)CC3` yielded a kinetic solubility greater than 46.6 µg/mL.

Consider `COC(=O)CNC(=O)c1cc(-c2ccncc2)nc2ccccc12`, for which the kinetic solubility was greater than 48.2 µg/mL.

`O=C(Nc1ccccc1)Nc1csc2ccccc12`: the solubility (kinetic) amounted to 0.6 µg/mL (≈ 2.24 µM).

With `CCC1CCCCN1C(=O)/C=C/c1ccc2c(c1)OCO2` (stereo unspecified), the solubility (kinetic) was greater than 43.1 µg/mL.

Compound `O=C(CCC(=O)N1CCCCCC1)NCc1ccc(F)cc1` showed a kinetic solubility greater than 46 µg/mL.

Turning to `Cc1cc(C)c(S(=O)(=O)Nc2cc(C)on2)c(C)c1`, the solubility (kinetic) was 37.2 µg/mL (≈ 133 µM).

`O=C1N=c2ccccc2=C1c1sc(=S)n(-c2ccc(O)cc2)c1O` returned a kinetic solubility of 0.8 µg/mL (≈ 2.26 µM).

Compound `O=C(Nc1ccccc1F)OC1CN2CCC1CC2` (stereo unspecified) gave a solubility (kinetic) greater than 39.6 µg/mL.

Consider `CCCN(C(=O)Cc1coc2cc(OC)ccc12)C1CCS(=O)(=O)C1` (stereo unspecified), for which the kinetic solubility is greater than 54.8 µg/mL.

Regarding `Cc1ccc(NC(=S)NCc2ccccc2)cc1C`, the kinetic solubility was found to be 5.1 µg/mL (≈ 18.9 µM).

`CC(=O)CN1C(=O)NC2(CCCc3ccccc32)C1=O` (stereo unspecified) showed a kinetic solubility greater than 40.8 µg/mL.

For orientation: solubility (kinetic) means the concentration staying in solution when a stock, usually in DMSO, is diluted into the medium.

These data come from PubChem BioAssay AID1996.
